Where two headings read alike, the source gives them in different places.
Tested on: pathogens, such as virus, e.g. cold and/or flu
Conditions: in vivo

C=C(C)[C@@H]1CCC(C)=C[C@H]1c1c(O)cc(CCCCC)cc1O [type A CBD, Cannabidiol]
Activity (potency) in protection against pathogens, compared with type B CBD: significantly more active
Activity (potency) in protection against pathogens, compared with type B CBD (listed as crystal structure A): significantly more potent

— patent US20250281393A1, “BODY CAVITY GEL” (CS MEDICA A/S, priority 2021, published 2025)
